Results from patent publication US20220259593A1, “CONTROL OF MAMMALIAN GENE DOSAGE USING CRISPR” (The Regents of the University of California, priority 2019, published 2022).

Key:
[1] = system: K562 CRISPRi cells; assay: Perturb-seq pooled growth measurement (sgRNA counts, growth phenotype γ, relative activity); format: cell-based, human; settings: sequencing read counts; for Perturb-seq pooled growth sgRNA counts, d5: 5 days of growth (day seven after transduction); for Perturb-seq pooled growth sgRNA counts, d10: 10 days of growth (day twelve after transduction); for Perturb-seq pooled growth sgRNA counts, T0: T0 = day two after transduction
From the text: Finally, we sought to use intermediate-activity sgRNAs to explore relationships between expression levels of various genes and the resulting cellular phenotypes. To simultaneously measure gene expression levels and obtain rich phenotypes for a variety of sgRNA series, we used Perturb-seq, an experimental strategy that enables matched capture of the transcriptome and the identity of an expressed sgRNA for each individual cell in pools of cells (27, 31-33) (FIG. 12A). […] In addition to the single-cell transcriptomes, we measured bulk growth phenotypes conferred by sgRNAs in these cells.
To measure the growth rate defects conferred by each sgRNA for comparison with the transcriptional phenotypes, samples of 500,000 transduced cells were taken from the same transduced cell population used in the Perturb-seq experiment on days two, seven, and twelve after transduction. Genomic DNA was extracted using the Nucleospin Blood kit (Macherey-Nagel) and sgRNA amplicons were prepared as described previously and above (19), albeit with no genomic DNA digestion or gel purification, and sequenced on HiSeq 4000 as described above for the other screens. Growth phenotypes were calculated by comparing normalized sgRNA abundances at day seven and twelve to those at day two, as described above. […] Relative sgRNA activities measured at day seven (five days of growth) were used to assign sgRNA activities in further analysis.

[2] = system: K562 CRISPRi cells; assay: Constant region variant library pooled growth screen, K562; format: cell-based, human; settings: sgRNA constant region variants
Method in brief: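 Relative activity expresses each targeting sequence:constant region pair's phenotype over that of the unmodified constant region. Pooled growth screen ran in K562 CRISPRi cells in duplicate spinner-flask replicates, with puromycin selection and 4–8 days' growth at >2000× coverage; library paired variants with 36 targeting sequences.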

[3] = activity relative to the un-modified constant region cr995

Molecule | Perturb-seq pooled growth sgRNA counts, d5 [1] | Perturb-seq pooled growth sgRNA counts, d10 [1] | Perturb-seq pooled growth sgRNA counts, T0 [1] | Mean relative activity [2, 3] | Mean relative activity ([2]; activity relative to the original, un-modified constant region cr995)
ALDOA_+_30077139.23-P1P2_00: sgRNA targeting ALDOA, GGTCACCAGGACCCCTTCTG, SEQ ID NO: 156 (listed as DNA, chemistry not fully specified) | 4056 | 2781 | 5280 | – | –
ALDOA_+_30077139.23-P1P2_06: sgRNA targeting ALDOA, GGTCACCAGGATCCCTTCTG, SEQ ID NO: 157 (listed as DNA, chemistry not fully specified) | 4831 | 3500 | 6015 | – | –
ALDOA_+_30077139.23-P1P2_07: sgRNA targeting ALDOA, GGTCACCAGGCCCCCTTCTG, SEQ ID NO: 158 (listed as DNA, chemistry not fully specified) | 4284 | 3028 | 4830 | – | –
ALDOA_+_30077139.23-P1P2_13: sgRNA targeting ALDOA, GGTCACCAGGACCCCTTTTG, SEQ ID NO: 160 (listed as DNA, chemistry not fully specified) | 16944 | 26890 | 6699 | – | –
ALDOA_+_30077139.23-P1P2_14: sgRNA targeting ALDOA, GGTCACCAGGACCGCTTCTG, SEQ ID NO: 159 (listed as DNA, chemistry not fully specified) | 5347 | 6076 | 3603 | – | –
ATP5E_−_57607036.23-P1P2_00: sgRNA targeting ATP5E, GGTGTCCAGGGGCACTCTGT, SEQ ID NO: 151 (listed as DNA, chemistry not fully specified) | 12109 | 9475 | 8197 | – | –
cr205 (nucleic acid, listed as DNA, chemistry not fully specified) guide: GTTTAAGAGCTAAGCTGGAAACAGCATAGCAAGTTTAAATAAGGCTAGTCCGTTATCAATTTGAAAAAATGGGACCGAGTCGGTCCT | – | – | – | 0.9515 | –
cr264 (nucleic acid, listed as DNA, chemistry not fully specified) guide: GTTTAAGAGCTAAGCTGGAAACAGCATAGCAAGTTTAAATAAGGCTAGTCCGTTATCAACTTGAAAATGTGGCACCGAGTCGGTGCT | – | – | – | 0.9513 | –
cr397 (nucleic acid, listed as DNA, chemistry not fully specified) guide: GTTTAAGAGCTAAGCTGGAAACAGCATAGCAAGTTTAAATAAGGCTAGTCCGTTATCAAATTGAAAAATTGGCACCGAGTCGGTGCT | – | – | – | 0.9508 | –
cr181 (nucleic acid, listed as DNA, chemistry not fully specified) guide: GTTTAAGAGCTAAGCTGGAAACAGCATAGCAAGTTTAAATAAGGTTAATCCGTTATCAATTTGAAAAAATGGCGCCGAGTCGGCGCT | – | – | – | 0.9506 | –
cr748 (nucleic acid, listed as DNA, chemistry not fully specified) guide: GTTTAAGAGCTAAGCTGGAAACAGCATAGCAAGTTTAAATAAGGCTAGTCCGTTATCAACTCGAGAGAGTGGCACCGAGTCGGTGCT | – | – | – | – | 1.146
cr835 (nucleic acid, listed as DNA, chemistry not fully specified) guide: GTTTAAGAGCTAAGCTGGAAACAGCATAGCAAGTTTAAATAAGGCTAGTCCGTTATCAACTTGAAAAAGTGGCACCGAGTCGGCGCT | – | – | – | 0.9515 | –
